Consider eleven molecules from ChEMBL document CHEMBL1201862, “PubChem BioAssay data set” (2004).

SMILES strings stand for the structures. Activity calls are given as the source filed them. A value given as a limit tells only on which side of the number the result lay.

The target in experiment [1] is T1, Eukaryotic translation initiation factor 2-alpha kinase 3 (Homo sapiens, UniProt Q9NZJ5).
T1 sequence (Q9NZJ5 whole entry): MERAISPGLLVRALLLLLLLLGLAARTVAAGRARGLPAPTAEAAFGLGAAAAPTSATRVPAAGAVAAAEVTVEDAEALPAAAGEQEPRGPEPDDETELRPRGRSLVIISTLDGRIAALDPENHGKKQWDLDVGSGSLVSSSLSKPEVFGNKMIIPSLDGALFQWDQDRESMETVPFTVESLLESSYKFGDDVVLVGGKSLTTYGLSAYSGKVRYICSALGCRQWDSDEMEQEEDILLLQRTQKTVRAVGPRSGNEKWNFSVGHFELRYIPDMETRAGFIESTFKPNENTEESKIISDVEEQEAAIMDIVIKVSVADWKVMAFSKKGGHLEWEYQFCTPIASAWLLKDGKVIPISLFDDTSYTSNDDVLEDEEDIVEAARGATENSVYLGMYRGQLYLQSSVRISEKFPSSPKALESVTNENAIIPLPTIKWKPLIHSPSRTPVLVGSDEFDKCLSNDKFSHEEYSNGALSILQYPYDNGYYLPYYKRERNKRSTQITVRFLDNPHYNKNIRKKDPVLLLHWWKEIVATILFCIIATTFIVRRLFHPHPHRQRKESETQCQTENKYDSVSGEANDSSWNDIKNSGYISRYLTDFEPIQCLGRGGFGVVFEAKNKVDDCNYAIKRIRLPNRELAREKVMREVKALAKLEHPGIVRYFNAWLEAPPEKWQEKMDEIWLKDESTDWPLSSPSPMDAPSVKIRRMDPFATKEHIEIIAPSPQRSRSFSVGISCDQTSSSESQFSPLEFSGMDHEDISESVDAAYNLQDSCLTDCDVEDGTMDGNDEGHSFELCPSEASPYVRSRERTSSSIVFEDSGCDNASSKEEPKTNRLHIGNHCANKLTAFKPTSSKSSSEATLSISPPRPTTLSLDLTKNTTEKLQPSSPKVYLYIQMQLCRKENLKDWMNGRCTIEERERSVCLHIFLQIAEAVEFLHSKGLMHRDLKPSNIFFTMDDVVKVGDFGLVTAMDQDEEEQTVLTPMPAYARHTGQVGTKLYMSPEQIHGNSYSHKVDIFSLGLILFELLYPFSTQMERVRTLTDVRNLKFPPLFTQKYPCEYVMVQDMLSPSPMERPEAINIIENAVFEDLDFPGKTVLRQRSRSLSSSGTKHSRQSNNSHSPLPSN
Put plainly: Dose response cell-based high-throughput screening assay to measure PERK inhibition. [Related pubchem assays: 1416 ]. It is filed as functional.

Experiment [2] addresses T1, Eukaryotic translation initiation factor 2-alpha kinase 3. The experiment in a line: Counterscreen assay for PERK inhibitors: Dose response cell-based high throughput screening assay to measure inhibition of PERK at 6 hours. [Related pubchem assays: 1522, 1416 ]. Type of experiment: functional. Background: Counterscreens check selectivity or assay interference.
Experiment [3] concerns the target Voltage-dependent T-type calcium channel subunit alpha-1H (Homo sapiens, UniProt O95180). Type of experiment: functional.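 Note: channel activity triggered by adding a high calcium stimulation buffer.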
The nature of experiment [4]: MIN6 cell viability loss – mouse insulinoma, cytotoxicity control, dose response (AID 2122).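 Note: confirmatory high-throughput counterscreen run to flag cytotoxic compounds.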 Type of experiment: functional.
The nature of experiment [5]: decrease of insulin promoter-GFP reporter – imaging, high-content screening, mouse beta cells (AID 1628). It is filed as functional. As to conditions: MIN6.
Experiment [6] can be described thus: HEK-293T cell viability reduction – luminescence, B-cell screen hits, cytotoxicity control for BCR NF-kB inhibitor project, dose response (AID 489021).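 Note: HEK-293T cells carrying an NF-kB luciferase reporter; cells exposed to compound for about 14 hours before viability readout.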 It is filed as functional, cell-based.
For a further experiment, the target named is T2, Hexokinase HKDC1 (Homo sapiens, UniProt Q2TB90).
T2 sequence (Q2TB90 whole entry): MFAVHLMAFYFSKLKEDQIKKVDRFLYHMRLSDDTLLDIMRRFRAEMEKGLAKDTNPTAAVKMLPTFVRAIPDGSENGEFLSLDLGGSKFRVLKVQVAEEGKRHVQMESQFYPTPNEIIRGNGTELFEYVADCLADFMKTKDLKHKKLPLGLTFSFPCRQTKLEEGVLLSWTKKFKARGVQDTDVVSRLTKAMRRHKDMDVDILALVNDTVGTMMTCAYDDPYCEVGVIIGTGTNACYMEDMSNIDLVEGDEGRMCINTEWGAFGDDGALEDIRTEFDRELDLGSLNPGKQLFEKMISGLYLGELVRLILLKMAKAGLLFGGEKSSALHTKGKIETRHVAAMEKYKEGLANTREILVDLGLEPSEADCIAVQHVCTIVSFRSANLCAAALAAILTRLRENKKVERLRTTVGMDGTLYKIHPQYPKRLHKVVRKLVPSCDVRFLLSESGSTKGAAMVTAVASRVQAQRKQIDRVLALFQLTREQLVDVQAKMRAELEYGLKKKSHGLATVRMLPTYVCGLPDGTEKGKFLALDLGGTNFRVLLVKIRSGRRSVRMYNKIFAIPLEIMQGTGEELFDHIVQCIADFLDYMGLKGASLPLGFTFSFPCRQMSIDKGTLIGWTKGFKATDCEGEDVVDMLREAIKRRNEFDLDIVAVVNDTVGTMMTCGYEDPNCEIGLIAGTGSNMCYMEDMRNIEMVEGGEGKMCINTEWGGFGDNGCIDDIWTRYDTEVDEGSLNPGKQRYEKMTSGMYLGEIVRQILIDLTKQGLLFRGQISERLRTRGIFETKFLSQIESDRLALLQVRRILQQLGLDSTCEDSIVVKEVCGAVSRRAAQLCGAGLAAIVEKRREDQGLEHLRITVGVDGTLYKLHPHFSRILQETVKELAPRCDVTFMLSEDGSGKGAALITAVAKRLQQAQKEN
The experiment in a line: inhibition of HKDC1 glucose phosphorylation – biochemical, W721R variant, dose response (AID 504729). It is filed as functional.

The target in experiment [7] is DNA dC->dU-editing enzyme APOBEC-3G (Homo sapiens, UniProt Q9HC16). Type of experiment: functional.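 Note: Dose-response counterscreen measuring inhibition of APOBEC3G DNA deaminase activity, run while confirming APOBEC3A inhibitors.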
Sequence of DNA dC->dU-editing enzyme APOBEC-3G (Q9HC16 whole entry): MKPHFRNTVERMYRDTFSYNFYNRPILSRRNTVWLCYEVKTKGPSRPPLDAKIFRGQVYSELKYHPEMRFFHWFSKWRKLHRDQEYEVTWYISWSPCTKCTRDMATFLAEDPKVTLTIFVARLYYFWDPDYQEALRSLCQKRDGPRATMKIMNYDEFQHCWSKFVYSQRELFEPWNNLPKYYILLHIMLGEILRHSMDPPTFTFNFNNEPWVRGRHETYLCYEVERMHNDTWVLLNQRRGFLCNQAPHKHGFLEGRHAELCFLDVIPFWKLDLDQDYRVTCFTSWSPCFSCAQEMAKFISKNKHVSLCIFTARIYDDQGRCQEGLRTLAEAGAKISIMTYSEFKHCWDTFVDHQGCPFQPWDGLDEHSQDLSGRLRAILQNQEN
The target in experiment [8] is Eukaryotic translation initiation factor 4H (Homo sapiens, UniProt Q15056). The experiment in a line: eIF4H binding inhibition – biochemical, uHTS, fluorescence polarization, translation initiation inhibitor project, primary screen (AID 2012). For orientation: Fluorescence polarisation rises when a labelled molecule tumbles more slowly, as on binding a larger partner.

Experiment [9] concerns the target T3, Calpain-2 catalytic subunit (Sus scrofa, UniProt P43367).
T3 sequence (P43367 whole entry): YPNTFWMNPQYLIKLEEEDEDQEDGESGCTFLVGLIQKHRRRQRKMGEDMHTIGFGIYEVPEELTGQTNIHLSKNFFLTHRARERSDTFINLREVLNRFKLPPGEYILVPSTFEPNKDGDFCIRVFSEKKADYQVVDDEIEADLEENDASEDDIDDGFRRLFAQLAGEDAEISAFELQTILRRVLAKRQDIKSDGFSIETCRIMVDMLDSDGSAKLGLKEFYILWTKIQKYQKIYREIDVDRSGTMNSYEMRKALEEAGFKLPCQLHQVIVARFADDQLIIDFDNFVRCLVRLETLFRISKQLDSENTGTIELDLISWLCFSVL
The experiment in a line: m-calpain protease blockers, concentration series – biochemical, fluorogenic peptide substrate, dose response (AID 1420). Type of experiment: functional.

In experiment [10] the target is DNA dC->dU-editing enzyme APOBEC-3A (Homo sapiens, UniProt P31941). The experiment in a line: Dose Response confirmation of small molecule APOBEC3A DNA Deaminase Inhibitors via a fluorescence-based single-stranded DNA deaminase assay. [Related pubchem assays (depositor defined):AID493011, AID493024]. It is filed as functional.
Sequence of DNA dC->dU-editing enzyme APOBEC-3A (P31941 whole entry): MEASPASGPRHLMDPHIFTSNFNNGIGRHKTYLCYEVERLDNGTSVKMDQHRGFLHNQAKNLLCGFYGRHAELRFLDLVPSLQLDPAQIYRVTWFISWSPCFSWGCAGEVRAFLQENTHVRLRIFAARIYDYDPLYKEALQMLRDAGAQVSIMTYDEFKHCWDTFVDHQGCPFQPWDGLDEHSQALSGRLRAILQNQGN
Experiment [11] addresses Polyadenylate-binding protein 1 (Homo sapiens, UniProt P11940). The experiment in a line: blockers of PABP interaction with poly(A) – biochemical, fluorescence polarization, […] (AID 2014).
Experiment [12] can be described thus: Luminescence Cell-Based Dose Retest to Confirm Inhibitors of Cancer Stem Cells. [Related pubchem assays (depositor defined):AID2717, AID2721]. It is filed as functional. As to conditions: Homo sapiens.
The target in experiment [13] is T4, Scavenger receptor class B member 1 (Mus musculus, UniProt Q61009).
T4 sequence (Q61009 whole entry): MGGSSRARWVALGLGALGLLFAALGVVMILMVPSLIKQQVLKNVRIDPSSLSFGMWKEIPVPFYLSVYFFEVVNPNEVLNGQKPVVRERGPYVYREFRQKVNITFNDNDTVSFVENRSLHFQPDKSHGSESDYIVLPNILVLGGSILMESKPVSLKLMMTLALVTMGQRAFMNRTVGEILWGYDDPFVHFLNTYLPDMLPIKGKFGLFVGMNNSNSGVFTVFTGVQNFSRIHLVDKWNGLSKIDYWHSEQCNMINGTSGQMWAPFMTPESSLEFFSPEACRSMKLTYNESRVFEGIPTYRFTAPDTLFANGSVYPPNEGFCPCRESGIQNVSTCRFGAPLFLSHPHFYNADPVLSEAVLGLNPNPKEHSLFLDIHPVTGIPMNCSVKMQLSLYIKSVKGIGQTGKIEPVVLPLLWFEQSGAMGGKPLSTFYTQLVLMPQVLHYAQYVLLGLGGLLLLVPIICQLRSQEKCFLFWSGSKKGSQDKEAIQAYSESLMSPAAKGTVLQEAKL
The experiment in a line: mouse SR-BI DiI-HDL uptake blockers – ldlA[mSR-BI] cells, fluorescence, cherry pick, dose response (AID 493194).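 Note: cellular uptake of fluorescent DiI-labeled HDL measured as cell fluorescence.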 It is filed as functional, cell-based.

For experiment [14], the target named is T5, Neuropeptides B/W receptor type 1 (Homo sapiens, UniProt P48145).
T5 sequence (P48145 whole entry): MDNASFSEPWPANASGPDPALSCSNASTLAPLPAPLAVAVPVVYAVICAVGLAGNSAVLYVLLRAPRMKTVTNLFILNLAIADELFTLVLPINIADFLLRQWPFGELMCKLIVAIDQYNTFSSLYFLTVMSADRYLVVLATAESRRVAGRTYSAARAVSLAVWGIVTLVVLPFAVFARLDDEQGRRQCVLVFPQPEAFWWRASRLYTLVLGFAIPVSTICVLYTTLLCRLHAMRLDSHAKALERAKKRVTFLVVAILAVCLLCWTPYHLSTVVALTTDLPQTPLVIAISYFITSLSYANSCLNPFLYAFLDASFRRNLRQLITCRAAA
Put plainly: Fluorescence-based dose response cell-based high throughput screening assay to identify antagonists of the G-protein coupled receptor 7 (GPR7). [Related pubchem assays: 1952 (Screening assay (GPR7 antagonists).), 1880 (Summary AID.)]. Type of experiment: functional.

Experiment [15] deals with Melanin-concentrating hormone receptor 1 (Homo sapiens, UniProt Q99705). Put plainly: Fluorescence-based counterscreen for antagonists of the G-protein coupled receptor 7 (GPR7): cell-based high throughput dose response assay to identify antagonists of the melanin-concentrating hormone receptor 1 (MCHR1). It is filed as functional.
Sequence of Melanin-concentrating hormone receptor 1 (Q99705 whole entry): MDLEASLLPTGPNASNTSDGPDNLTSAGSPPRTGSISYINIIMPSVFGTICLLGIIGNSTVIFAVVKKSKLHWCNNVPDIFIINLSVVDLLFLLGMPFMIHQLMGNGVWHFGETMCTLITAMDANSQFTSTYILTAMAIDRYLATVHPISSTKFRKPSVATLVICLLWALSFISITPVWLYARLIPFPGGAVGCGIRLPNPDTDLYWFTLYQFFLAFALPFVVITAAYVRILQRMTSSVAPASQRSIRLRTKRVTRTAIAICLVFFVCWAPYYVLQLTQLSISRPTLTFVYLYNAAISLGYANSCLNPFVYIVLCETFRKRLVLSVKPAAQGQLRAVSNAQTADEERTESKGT

Sequence of Voltage-dependent T-type calcium channel subunit alpha-1H (O95180 whole entry): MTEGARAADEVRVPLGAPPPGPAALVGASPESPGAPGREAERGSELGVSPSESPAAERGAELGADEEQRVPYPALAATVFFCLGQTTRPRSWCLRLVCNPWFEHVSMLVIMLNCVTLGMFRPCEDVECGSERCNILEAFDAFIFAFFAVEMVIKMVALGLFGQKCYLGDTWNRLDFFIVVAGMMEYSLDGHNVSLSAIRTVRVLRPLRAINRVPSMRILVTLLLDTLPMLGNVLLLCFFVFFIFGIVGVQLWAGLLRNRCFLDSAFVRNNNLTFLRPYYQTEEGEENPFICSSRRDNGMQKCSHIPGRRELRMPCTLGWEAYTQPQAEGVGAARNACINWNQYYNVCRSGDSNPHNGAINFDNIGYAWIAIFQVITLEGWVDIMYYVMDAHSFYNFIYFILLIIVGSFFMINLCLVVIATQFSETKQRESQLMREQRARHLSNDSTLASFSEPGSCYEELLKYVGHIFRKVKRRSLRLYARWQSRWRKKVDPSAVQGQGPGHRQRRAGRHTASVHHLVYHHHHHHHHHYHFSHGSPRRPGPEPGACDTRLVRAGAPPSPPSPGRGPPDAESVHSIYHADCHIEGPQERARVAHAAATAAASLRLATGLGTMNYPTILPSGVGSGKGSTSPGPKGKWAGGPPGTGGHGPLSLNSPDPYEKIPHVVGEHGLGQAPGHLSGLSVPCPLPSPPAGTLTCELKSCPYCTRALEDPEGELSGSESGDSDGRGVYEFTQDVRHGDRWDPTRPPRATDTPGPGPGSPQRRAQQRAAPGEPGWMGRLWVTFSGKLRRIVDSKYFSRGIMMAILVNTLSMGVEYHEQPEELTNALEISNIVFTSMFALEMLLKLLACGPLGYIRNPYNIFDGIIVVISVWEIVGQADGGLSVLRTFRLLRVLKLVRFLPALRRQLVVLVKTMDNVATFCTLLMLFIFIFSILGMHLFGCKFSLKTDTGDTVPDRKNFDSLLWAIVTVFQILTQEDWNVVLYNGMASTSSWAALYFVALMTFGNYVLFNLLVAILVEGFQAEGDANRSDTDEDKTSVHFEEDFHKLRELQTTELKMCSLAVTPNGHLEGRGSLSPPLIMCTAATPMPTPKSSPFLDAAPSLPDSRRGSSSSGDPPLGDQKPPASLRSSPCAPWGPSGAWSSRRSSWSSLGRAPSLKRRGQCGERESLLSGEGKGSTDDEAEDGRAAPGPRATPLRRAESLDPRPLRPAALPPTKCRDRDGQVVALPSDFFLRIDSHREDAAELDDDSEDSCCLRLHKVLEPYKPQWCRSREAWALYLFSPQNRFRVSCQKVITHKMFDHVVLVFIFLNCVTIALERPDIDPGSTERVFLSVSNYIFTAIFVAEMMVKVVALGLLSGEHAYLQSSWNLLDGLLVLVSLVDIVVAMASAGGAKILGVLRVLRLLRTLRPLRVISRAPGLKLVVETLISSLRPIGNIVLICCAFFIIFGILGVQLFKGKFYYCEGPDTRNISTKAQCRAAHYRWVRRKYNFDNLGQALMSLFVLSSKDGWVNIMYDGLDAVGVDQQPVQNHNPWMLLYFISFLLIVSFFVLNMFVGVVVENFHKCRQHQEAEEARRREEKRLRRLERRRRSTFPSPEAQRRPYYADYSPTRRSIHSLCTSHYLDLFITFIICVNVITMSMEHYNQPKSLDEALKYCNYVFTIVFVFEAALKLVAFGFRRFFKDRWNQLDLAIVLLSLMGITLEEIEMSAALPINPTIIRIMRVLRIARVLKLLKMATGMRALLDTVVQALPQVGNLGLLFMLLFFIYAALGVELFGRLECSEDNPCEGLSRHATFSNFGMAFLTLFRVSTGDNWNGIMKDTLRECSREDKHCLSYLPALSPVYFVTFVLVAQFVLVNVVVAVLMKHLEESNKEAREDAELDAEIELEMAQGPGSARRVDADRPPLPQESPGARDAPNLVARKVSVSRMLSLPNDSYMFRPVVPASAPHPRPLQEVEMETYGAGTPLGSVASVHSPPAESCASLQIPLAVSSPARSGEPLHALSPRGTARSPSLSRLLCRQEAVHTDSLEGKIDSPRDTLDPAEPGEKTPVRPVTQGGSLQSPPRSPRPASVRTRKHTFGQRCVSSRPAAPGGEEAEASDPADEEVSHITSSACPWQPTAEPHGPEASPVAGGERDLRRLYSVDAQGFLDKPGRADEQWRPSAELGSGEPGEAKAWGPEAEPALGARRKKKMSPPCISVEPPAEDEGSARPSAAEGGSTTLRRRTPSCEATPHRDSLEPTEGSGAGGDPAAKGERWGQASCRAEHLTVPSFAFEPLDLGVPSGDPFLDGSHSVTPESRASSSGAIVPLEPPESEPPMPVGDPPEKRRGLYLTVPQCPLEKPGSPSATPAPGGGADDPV
Sequence of Polyadenylate-binding protein 1 (P11940 whole entry): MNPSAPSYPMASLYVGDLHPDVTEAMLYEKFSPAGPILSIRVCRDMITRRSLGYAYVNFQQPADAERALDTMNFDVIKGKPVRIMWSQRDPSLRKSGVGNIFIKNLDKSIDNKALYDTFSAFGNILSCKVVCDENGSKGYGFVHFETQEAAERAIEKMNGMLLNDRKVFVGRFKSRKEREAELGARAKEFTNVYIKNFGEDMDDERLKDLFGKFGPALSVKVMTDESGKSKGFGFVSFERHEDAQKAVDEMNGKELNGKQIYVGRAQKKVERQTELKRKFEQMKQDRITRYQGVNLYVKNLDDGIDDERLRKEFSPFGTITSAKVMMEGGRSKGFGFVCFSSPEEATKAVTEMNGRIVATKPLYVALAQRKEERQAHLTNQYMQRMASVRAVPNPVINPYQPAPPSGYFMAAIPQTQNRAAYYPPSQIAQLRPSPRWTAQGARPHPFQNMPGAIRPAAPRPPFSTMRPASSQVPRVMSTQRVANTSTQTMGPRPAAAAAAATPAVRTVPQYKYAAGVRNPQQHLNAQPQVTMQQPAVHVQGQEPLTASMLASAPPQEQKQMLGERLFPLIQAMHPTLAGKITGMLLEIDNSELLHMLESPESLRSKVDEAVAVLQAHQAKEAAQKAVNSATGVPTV

On to `COc1ccc2c(c1)c(=O)oc1cc(O)ccc12`, for which the EC50 in experiment [1] and in experiment [2] was > 55.7 µM (not active) each time.
With `c1ccc(C(c2nnnn2Cc2ccco2)N2CCN(c3nc4ccccc4s3)CC2)cc1` (configuration not stated), in experiment [3], the half-maximal effective concentration (EC50) is 6.65 µM (active).
On to `Cc1ccccc1OCC(=O)N(Cc1nc(-c2ccccc2)no1)C(C)C`, for which the EC50 in experiment [3] is 5.63 µM (active).
On to `N=c1ccn(Cc2ccccc2Cl)cc1`, for which the values for the IC50 in experiment [4], in [5] and in experiment [6] were 3.42 µM (active), 3.37 µM (active) and > 80 µM (inactive), respectively.
For `CCCCNC(=O)c1sc(=S)n2c1[nH]c(=O)c1ccc(C(=O)NCCc3ccc(OC)c(OC)c3)cc12`, the IC50 on Hexokinase HKDC1 is 35.7 µM (inactive).
As to `COc1ccc(CCCc2nnc(SCC(=O)Nc3ccc(C)c(C)c3)o2)cc1`, the IC50 was 3.68 µM (active) in [7]; > 100 µM (inactive) in [8]; < 0.4 µM (not active) in experiment [9]; 2.18 µM (active) in experiment [10]; 6.61 µM (active) in experiment [11].
In the case of `C=CCCC(=O)Nc1nc(C)c(-c2csc(Nc3ccc(Cl)cc3)n2)s1`, the AC50 is 2.6 µM (active) in experiment [12] and 7.3 µM (active) in experiment [13].
In the case of `O=C(O)Cn1cnc2c(S)ncnc21`, the EC50 in experiment [1] and in experiment [2] was > 55.7 µM (not active) throughout.
Turning to `CC(C)(CO)NCc1c(OCc2ccc(Cl)cc2)ccc2ccccc12`, the IC50 is 7.85 µM (active) in experiment [14] and 9.31 µM (active) in experiment [15].
As to `COc1ccc(NC(=O)CN(C)C(=O)C2(c3ccccc3)CCCC2)cc1`, the IC50 in experiment [6] is > 80 µM (inactive).
With `COc1cc(/C=N\NC(=O)c2ccc(Cl)cc2)ccc1Oc1ccc([N+](=O)[O-])cn1`, the figures for the IC50 in [8] and in experiment [11] were > 100 µM (inactive) and 9.22 µM (active), respectively.

The EC50 is the concentration that produces a half-maximal response. Broadly, the IC50 is the concentration at which inhibition is half-maximal. For orientation: AC50 means the concentration at which the activity in the assay is half-maximal.
